Test [1] can be described thus: Anti-nicotine IgG in immunized mice (ELISA). Type of test: in vivo, mouse. Particulars: FIGS. 36 and 37. For orientation: An ELISA detects its analyte on a solid surface through an enzyme-linked reagent.
A further test deals with OT-II CD4 T cells. As to the kind of experiment: In vivo CD4 T cell activation (CFSE-labeled OT-II cells). On the set-up: species or system mouse. Particulars: with CpG adjuvant, three days after footpad immunization. On the procedure:
Subsequently, immunization experiments were performed by injecting one footpad with free OVA or with nanoparticles composed of either PLA or PLGA that encapsulated an equivalent amount of OVA as a model antigen. All antigenic mixtures also contained CpG (a TLR9 agonist) as an adjuvant. The animals were injected, sacrificed three days after immunization, and OT-II T cell activation was assessed by flow cytometry in single-cell suspensions from different tissues.
By contrast, activated T cells divide and in the process split the fluorescent dye evenly between the two daughter cells resulting in an incremental decrease in fluorescence intensity upon each successive division. Thus, the greater the left shift in CFSE, fluorescence the stronger T cells were activated.

For the molecule `CN1CCCC1c1cccnc1` (centres unmarked) [free nicotine, nicotine], the “production of nicotine antibodies” value in test [1] is given as “does not elicit the production of nicotine antibodies”.

Take “free OVA: free chicken ovalbumin model antigen”: in the test on OT-II CD4 T cells, the “local T cell proliferation in distal lymphoid tissues (brachial lymph node, spleen)” value was “only undivided cells or cells with very low CFSE content”.
